Experimental data as given in patent US6479435B1, “Diaryl ethers and processes for their preparation and herbicidal and desiccant compositions containing them” (ISK Americas Incorporated, priority 1997, dated 2002).

Experiments:
Assay type in all cases: in vivo
[1] = tested on: green foxtail (Setaria viridis, SETVI); experiment: Post-emerge greenhouse herbicide test, phytotoxicity rating; conditions: 14 days after application; for phytotoxicity rating SETVI: scale 0-100
How it was run: (§1)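 Plants at the 2-3 leaf stage, sown 8-21 days earlier, were track-sprayed post-emergence with compound in acetone plus 0.25% v/v non-ionic surfactant at 63-1000 g ai/ha (187 l/ha). Damage was rated at 14 days on a 0-100 scale (0 none, 100 all plants dead), for both crop injury and weed control.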

[2] = tested on: velvetleaf (Abutilon theophrasti, ABUTH); experiment: as above; conditions: 14 days after application; for phytotoxicity rating ABUTH: scale 0-100
How it was run: as §1

[3] = tested on: large crabgrass (Digitaria sanguinalis, DIGSA); experiment: as above; conditions: 14 days after application; for phytotoxicity rating DIGSA: scale 0-100
How it was run: as §1

[4] = tested on: lambsquarters (Chenopodium album, CHEAL); experiment: as above; conditions: 14 days after application; for phytotoxicity rating CHEAL: scale 0-100
How it was run: as §1

[5] = tested on: Johnsongrass (Sorghum halepense, SORHA); experiment: as above; conditions: 14 days after application; for phytotoxicity rating SORHA: scale 0-100
How it was run: as §1

[6] = tested on: sicklepod (Cassia obtusifolia, CASOB); experiment: as above; conditions: 14 days after application; for phytotoxicity rating CASOB: scale 0-100
How it was run: as §1

[7] = tested on: ivyleaf morningglory (Ipomoea hederacea, IPOHE); experiment: as above; conditions: 14 days after application; for phytotoxicity rating IPOHE: scale 0-100
How it was run: as §1

[8] = tested on: barnyardgrass (Echinochloa crusgalli, ECHCG); experiment: as above; conditions: 14 days after application; for phytotoxicity rating ECHCG: scale 0-100
How it was run: as §1

[9] = tested on: redroot pigweed (Amaranthus retroflexus, AMARE); experiment: as above; conditions: 14 days after application; for phytotoxicity rating AMARE: scale 0-100
How it was run: as §1

[10] = tested on: soybean (Glycine max L., var. Pella 86, SOY); experiment: Pre-emerge greenhouse test, crop damage rating; set-up: key to SOY crop damage rating: 0 = no damage, 100 = complete death of all plants; conditions: 14 days after application, rating scale 0-100
How it was run: (§2)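 Seeds sown in sandy loam one day before track-sprayer application of acetone solutions at 125–1000 g ai/ha (187 l/ha), then surface-watered to incorporate and bottom-watered. Injury scored visually at 14 days on a 0–100 scale (0 no damage, 100 complete death).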

[11] = tested on: green foxtail (Setaria viridis, SETVI); experiment: Pre-emerge greenhouse herbicide test, phytotoxicity rating; conditions: 14 days after application, rating scale 0-100
Source text: (§3) A standard greenhouse herbicide activity screening system was used to evaluate the herbicidal efficacy and crop safety of these test compounds. Six broadleaf weed species including redroot pigweed (Amaranthus retroflexus, AMARE), velvetleaf (Abutilon theophrasti, ABUTH), sicklepod (Cassia obtusifolia, CASOB), ivyleaf morningglory (Ipomoea hederacea, IPOHE), lambsquarters (Chenopodium album, CHEAL) and common ragweed (Ambrosia artemisiifolia L., AMBEL) were used as test species. Four grass weed species including green foxtail (Setaria viridis, SETVI), barnyardgrass (Echinochloa crusgalli, ECHCG), Johnsongrass (Sorghum halepense, SORHA), and large crabgrass (Digitaria sanguinalis, DIGSA) were also used. In addition, three crop species, field corn (Zea mays L., var. Dekalb 535, CORN), soybean (Glycine max L., var. Pella 86, SOY), and upland rice (Oryza sp., var.Tebonnet, RICE) were included.
(§4) All plants were grown in 10 cm square plastic pots which were filled with a sandy loam soil mix. For preemerge tests, seeds were planted one day prior to application of the test compounds. Immediately after application, test units of the pre-emerge applications were watered at the soil surface to incorporate the test materials. Subsequently, these test units were bottom-watered.
(§5) All test compounds were dissolved in acetone and applied to the test units in a volume of 187 l/ha. Test materials were applied at rates ranging from 125 g ai/ha to 1000 g ai/ha using a track sprayer equipped with a TJ8001E even flow flat fan spray nozzle. Plants were arranged on a shelf so that the top of the canopy (post-emerge) or top of the soil surface (pre-emerge) was 40-45 cm below the nozzle. Pressurized air was used to force the test solution through the nozzle as it was mechanically advanced (via electrically driven chain drive) over the top of all test plants/pots. This application simulates a typical commercial field herbicide application.
(§6) At 14 days after application of the test materials, phytotoxicity ratings were recorded. A rating scale of 0-100 was used as previously described in Research Methods in Weed Science, 2nd edition, B. Truelove, Ed., Southern Weed Science Society, Auburn University, Auburn, Ala., 1977. Briefly, “0” corresponds to no damage and “100” corresponds to complete death of all plants in the test unit. This scale was used both to determine efficacy against weed species and damage to crop species. Herbicide activity data for various compounds of this invention, which are shown by compound number in Tables 1-9, are shown in Tables 13 and 14.

[12] = tested on: velvetleaf (Abutilon theophrasti, ABUTH); experiment: as above; conditions: 14 days after application, rating scale 0-100
Source text: as §3, §4, §5, §6

[13] = tested on: large crabgrass (Digitaria sanguinalis, DIGSA); experiment: as above; conditions: 14 days after application, rating scale 0-100
Source text: as §3, §4, §5, §6

[14] = tested on: lambsquarters (Chenopodium album, CHEAL); experiment: as above; conditions: 14 days after application, rating scale 0-100
Source text: as §3, §4, §5, §6

[15] = tested on: Johnsongrass (Sorghum halepense, SORHA); experiment: as above; conditions: 14 days after application, rating scale 0-100
Source text: as §3, §4, §5, §6

[16] = tested on: sicklepod (Cassia obtusifolia, CASOB); experiment: as above; conditions: 14 days after application, rating scale 0-100
Source text: as §3, §4, §5, §6

[17] = tested on: ivyleaf morningglory (Ipomoea hederacea, IPOHE); experiment: as above; conditions: 14 days after application, rating scale 0-100
Source text: as §3, §4, §5, §6

[18] = tested on: barnyardgrass (Echinochloa crusgalli, ECHCG); experiment: as above; conditions: 14 days after application, rating scale 0-100
Source text: as §3, §4, §5, §6

[19] = tested on: redroot pigweed (Amaranthus retroflexus, AMARE); experiment: as above; conditions: 14 days after application, rating scale 0-100
Source text: as §3, §4, §5, §6

[20] = tested on: common ragweed (Ambrosia artemisiifolia L., AMBEL); experiment: Post-emerge greenhouse herbicide test, phytotoxicity rating; conditions: 14 days after application, scale 0-100
Source text: as §3
as §5, with “Test materials were applied at rates ranging from 125 g ai/ha to 1000 g ai/ha using a track sprayer equipped with a TJ8001E even flow flat fan spray nozzle.” left out
In the post-emerge test, a commercial non-ionic surfactant was also included (0.25% v/v) to enhance wetting of the leaf surfaces Qf target plants at rates ranging from 63 g ai/ha to 1000 g ai/ha. For post-emerge tests, seeds were planted 8-21 days prior to the test to allow emergence and good foliage development prior to application of the test substances. At the time of the post-emerge application, plants of all species were usually at the 2-3 leaf stage of development. Post-emerge test units were always bottom-watered.
as §6

[21] = tested on: upland rice (Oryza sp., var.Tebonnet, RICE); experiment: Pre-emerge greenhouse test, crop damage rating; conditions: 14 days after application, rating scale 0-100
How it was run: as §2

[22] = tested on: field corn (Zea mays L., var. Dekalb 535, CORN); experiment: Pre-emerge greenhouse test, crop damage rating; conditions: 14 days after application, rating scale 0-100
How it was run: as §2

[23] = tested on: soybean (Glycine max L., var. Pella 86, SOY); experiment: Post-emerge greenhouse test, crop damage rating; set-up: key to crop damage rating SOY: 0-100 scale: 0 = no damage, 100 = complete death of all plants; conditions: 14 days after application; for crop damage rating SOY: scale 0-100
How it was run: as §1

[24] = tested on: upland rice (Oryza sp., var.Tebonnet, RICE); experiment: Post-emerge greenhouse test, crop damage rating; conditions: 14 days after application; for crop damage rating RICE: scale 0-100
How it was run: as §1

[25] = tested on: field corn (Zea mays L., var. Dekalb 535, CORN); experiment: Post-emerge greenhouse test, crop damage rating; conditions: 14 days after application; for crop damage rating CORN: scale 0-100
How it was run: as §1

CCOC(=O)C(C)Oc1ccc(Oc2cc(-n3c(=O)n4n(c3=S)CCCC4)c(F)cc2Cl)c([N+](=O)[O-])c1 (stereo not shown) [Compound 8-39]
phytotoxicity rating SETVI ([1]; rate 63 g ai/ha): 10
phytotoxicity rating SETVI ([1]; rate 230 g ai/ha): 10
phytotoxicity rating ABUTH ([2]; rate 63 g ai/ha): 100
phytotoxicity rating ABUTH ([2]; rate 230 g ai/ha): 100
phytotoxicity rating DIGSA ([3]; rate 63 g ai/ha): 0
phytotoxicity rating DIGSA ([3]; rate 230 g ai/ha): 10
phytotoxicity rating CHEAL ([4]; rate 63 g ai/ha): 50
phytotoxicity rating CHEAL ([4]; rate 230 g ai/ha): 70
phytotoxicity rating SORHA ([5]; rate 63 g ai/ha): 0
phytotoxicity rating SORHA ([5]; rate 230 g ai/ha): 10
phytotoxicity rating CASOB ([6]; rate 63 g ai/ha): 100
phytotoxicity rating CASOB ([6]; rate 230 g ai/ha): 30
phytotoxicity rating IPOHE ([7]; rate 63 g ai/ha): 100
phytotoxicity rating IPOHE ([7]; rate 230 g ai/ha): 90
phytotoxicity rating ECHCG ([8]; rate 63 g ai/ha): 0
phytotoxicity rating ECHCG ([8]; rate 230 g ai/ha): 30
phytotoxicity rating AMARE ([9]; rate 63 g ai/ha): 70
phytotoxicity rating AMARE ([9]; rate 230 g ai/ha): 80
SOY crop damage rating ([10]; Rate 125 g al/ha): 0
SOY crop damage rating ([10]; Rate 250 g al/ha): 0
SETVI phytotoxicity rating ([11]; Rate 125 g al/ha): 0
SETVI phytotoxicity rating ([11]; Rate 250 g al/ha): 40
ABUTH phytotoxicity rating ([12]; Rate 125 g al/ha): 20
ABUTH phytotoxicity rating ([12]; Rate 250 g al/ha): 100
DIGSA phytotoxicity rating ([13]; Rate 125 g al/ha): 0
DIGSA phytotoxicity rating ([13]; Rate 250 g al/ha): 0
CHEAL phytotoxicity rating ([14]; Rate 125 g al/ha): 99
CHEAL phytotoxicity rating ([14]; Rate 250 g al/ha): 100
SORHA phytotoxicity rating ([15]; Rate 125 g al/ha): 0
SORHA phytotoxicity rating ([15]; Rate 250 g al/ha): 0
CASOB phytotoxicity rating ([16]; Rate 125 g al/ha): 95
CASOB phytotoxicity rating ([16]; Rate 250 g al/ha): 0
IPOHE phytotoxicity rating ([17]; Rate 125 g al/ha): 0
IPOHE phytotoxicity rating ([17]; Rate 250 g al/ha): 0
ECHCG phytotoxicity rating ([18]; Rate 125 g al/ha): 0
ECHCG phytotoxicity rating ([18]; Rate 250 g al/ha): 0
AMARE phytotoxicity rating ([19]; Rate 125 g al/ha): 100
AMARE phytotoxicity rating ([19]; Rate 250 g al/ha): 100
phytotoxicity rating AMBEL ([20]; rate 63 g ai/ha): 60
phytotoxicity rating AMBEL ([20]; rate 230 g ai/ha): 80
RICE crop damage rating ([21]; Rate 250 g al/ha): 20
CORN crop damage rating ([22]; Rate 125 g al/ha): 0
CORN crop damage rating ([22]; Rate 250 g al/ha): 0
crop damage rating SOY ([23]; rate 63 g ai/ha): 60
crop damage rating SOY ([23]; rate 230 g ai/ha): 80
crop damage rating RICE ([24]; rate 63 g ai/ha): 15
crop damage rating RICE ([24]; rate 230 g ai/ha): 15
crop damage rating CORN ([25]; rate 63 g ai/ha): 15
crop damage rating CORN ([25]; rate 230 g ai/ha): 10

O=c1cc2n(c(=O)n1-c1cc(Oc3ncccc3[N+](=O)[O-])c(Cl)cc1F)CCC2 [Compound 5-8]
SETVI phytotoxicity rating (0-100) ([1]; 1000 g al/ha): 10
ABUTH phytotoxicity rating (0-100) ([2]; 1000 g al/ha): 100
DIGSA phytotoxicity rating (0-100) ([3]; 1000 g al/ha): 0
CHEAL phytotoxicity rating (0-100) ([4]; 1000 g al/ha): 60
SORHA phytotoxicity rating (0-100) ([5]; 1000 g al/ha): 0
CASOB phytotoxicity rating (0-100) ([6]; 1000 g al/ha): 30
IPOHE phytotoxicity rating (0-100) ([7]; 1000 g al/ha): 80
ECHCG phytotoxicity rating (0-100) ([8]; 1000 g al/ha): 0
AMARE phytotoxicity rating (0-100) ([9]; 1000 g al/ha): 40
crop damage rating SOY ([10]; 1000 g ai/ha): 50
phytotoxicity rating SETVI ([11]; 1000 g ai/ha): 95
phytotoxicity rating ABUTH ([12]; 1000 g ai/ha): 100
phytotoxicity rating DIGSA ([13]; 1000 g ai/ha): 100
phytotoxicity rating CHEAL ([14]; 1000 g ai/ha): 100
phytotoxicity rating SORHA ([15]; 1000 g ai/ha): 95
phytotoxicity rating CASOB ([16]; 1000 g ai/ha): 0
phytotoxicity rating IPOHE ([17]; 1000 g ai/ha): 80
phytotoxicity rating ECHCG ([18]; 1000 g ai/ha): 85
phytotoxicity rating AMARE ([19]; 1000 g ai/ha): 100
crop damage rating RICE ([21]; 1000 g ai/ha): 50
crop damage rating CORN ([22]; 1000 g ai/ha): 15
SOY crop damage rating (0-100) ([23]; 1000 g al/ha): 20
RICE crop damage rating (0-100) ([24]; 1000 g al/ha): 0
CORN crop damage rating (0-100) ([25]; 1000 g al/ha): 0
